The target in one experiment is T1, Adenosine receptor A1 (Rattus norvegicus, UniProt P25099).
T1 sequence (P25099 whole entry): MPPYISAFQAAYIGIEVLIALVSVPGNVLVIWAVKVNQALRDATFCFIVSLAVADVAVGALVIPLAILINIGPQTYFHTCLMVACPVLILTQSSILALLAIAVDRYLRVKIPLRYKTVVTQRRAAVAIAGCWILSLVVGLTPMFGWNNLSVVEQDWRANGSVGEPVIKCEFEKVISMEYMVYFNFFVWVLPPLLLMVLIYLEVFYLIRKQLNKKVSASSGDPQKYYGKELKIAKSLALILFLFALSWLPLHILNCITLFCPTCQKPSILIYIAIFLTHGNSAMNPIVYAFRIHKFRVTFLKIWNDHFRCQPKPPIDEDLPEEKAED
Description: Displacement of [3H]N6-PIA (Kd, 1 nM) binding from Adenosine A1 receptor in whole rat brain membranes. In kind it is cell membranes.

A further experiment concerns the target Adenosine receptor A2a (Rattus norvegicus, UniProt P30543). Nature of the experiment: Displacement of [3H]CGS-21680 (Kd, 14.9 nM) from A2A receptor in rat striatal membranes. In kind it is cell membranes, Membrane. For orientation: In a radioligand displacement assay an active substance lowers the binding of a labelled ligand.

SMILES strings stand for the structures.

Chain of Adenosine receptor A2a (P30543 whole entry): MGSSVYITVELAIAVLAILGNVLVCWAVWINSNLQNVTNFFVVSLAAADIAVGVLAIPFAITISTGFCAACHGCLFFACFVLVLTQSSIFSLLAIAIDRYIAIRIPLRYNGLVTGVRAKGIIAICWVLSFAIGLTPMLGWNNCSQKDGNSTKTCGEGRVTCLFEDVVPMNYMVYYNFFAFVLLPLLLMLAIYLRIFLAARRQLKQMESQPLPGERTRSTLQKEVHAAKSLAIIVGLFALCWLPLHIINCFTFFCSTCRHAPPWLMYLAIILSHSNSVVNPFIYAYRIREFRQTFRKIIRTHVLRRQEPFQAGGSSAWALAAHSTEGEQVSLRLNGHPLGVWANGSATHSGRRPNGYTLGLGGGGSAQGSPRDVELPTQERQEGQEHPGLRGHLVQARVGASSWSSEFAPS

Consider `C[C@@H](Nc1nc(N)c2cnn(-c3ccccc3)c2n1)C(N)=O`, for which the Ki (in general, a dissociation constant, usually derived from enzyme kinetics or from competition with a known ligand) on Adenosine receptor A1 was 0.486 µM; at Adenosine receptor A2a, 2.12 µM.
Taken in the same sequence, the figures for `C[C@H](Nc1nc(N)c2cnn(-c3ccccc3)c2n1)C(N)=O` were 0.0491 µM and 0.648 µM.
Taken in the same sequence, the figures for `CC(Nc1nc(N)c2cnn(-c3ccccc3)c2n1)C(N)=O` (racemic) were 0.084 µM and 0.93 µM.

The values above are taken from ChEMBL document CHEMBL1133781, “High-pressure synthesis of enantiomerically pure C-6 substituted pyrazol” (Bioorg Med Chem Lett, 2001).
